Reference: paper PMC3229521, “Engineering Genetically Encoded Nanosensors for Real-Time In Vivo Measurements of Citrate Concentrations” (PLoS ONE, 2011)
Where a name gives a salt, the structure may show the parent alone.

What was measured:
Test in all cases: Citrate titration of purified FRET nanosensors in a fluorescence plate reader (excitation 433 nm, Venus/CFP emission ratio 530/488 nm) in 20 mM MOPS, 20 mM NaCl, pH 7, fitted to a single site binding curve.
Settings in all cases: n = 2
[1] = target: T1, CIT50μ (Klebsiella pneumoniae, UniProt P52687, R92A)
T1 construct: gene citA; CitA residues 6-130 inserted between CFP and Venus (pGW1, pRSET-based), His-tag purified
T1 sequence (P52687 49-173 R92A): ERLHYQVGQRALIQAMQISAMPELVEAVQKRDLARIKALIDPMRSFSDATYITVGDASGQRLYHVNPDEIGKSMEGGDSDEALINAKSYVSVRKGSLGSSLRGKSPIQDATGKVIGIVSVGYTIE
Procedure: (§1) Next, we thoroughly tested the newly created nanosensor CFP-CitA6-130-Venus in vitro. We determined the binding properties by mixing the sensor with 0.5 to 1000 µM citrate. The obtained ratios were fitted to a single site binding curve as described in the methods section. We determined the KD, the ligand concentration at half-maximal saturation, to be 8 µM, which is very close to the value determined by Gerharz et al (2003) using isothermal titration calorimetry to characterize the purified protein [25]. The reproducibility between different batches of proteins extraction was excellent, with ratios in general not differing by more than 5%. A crucial feature for in vivo application is specificity. We thus exposed the nanosensor to a variety of structurally related organic acids including isocitrate, aconitate, α-ketoglutarate, succinate and pyruvate in presence or absence of citrate. […] In the case of isocitrate, we observed an effect only at concentrations above 1 mM (Figure 2 B) in absence of citrate, which by far exceeds the concentration typically observed by metabolomics in microbes. Also, the apparent affinity for citrate was not modified in the presence of isocitrate or aconitate (data not shown), which excludes competitive binding. After confirming the high specificity of the sensor we tested pH stability, which is crucial when aiming to study certain intracellular compartments (Figure S2 A). […] Therefore, the new nanosensor should be functional in most compartments, however it is not suitable for highly acidic compartments such as endosomes or vacuoles. We also tested the effect of high salt concentrations as typically observed in cells. […] Thus, as has been previously observed when comparing nanosensors in vitro and in vivo [13], [23], we can expect the observed fluorescence intensity ratio in vivo to be lower than under assay conditions. The KD and the dynamic range, however, were not altered, and thus relative changes in citrate concentrations can still be monitored in vivo.
(§2) The natural receptor CitA is highly sensitive and detects low concentrations of citrate in the periplasmic environment and thus has a very high affinity for its substrate. For application as an intracellular sensor a saturation concentration of approximately 100 µM appeared too low given the estimates of intracellular concentrations of citrate by metabolomics approaches in the mid micromolar to low millimolar range [3]. We therefore engineered the affinity of the nanosensor for in vivo applications. Gerharz et al systematically investigated residues of the CitA sensor domain involved in citrate binding. Replacement of positively charged amino acids with alanine led to decreased affinity. We chose five of the reported point mutations and introduced them into the sensor CitA6-130. We determined binding constants and total FRET ratios from two independent extractions (Table 1). The binding constants were qualitatively in good agreement with the observations of Gerharz et al., though in some cases we observed a much larger decrease of affinity. This might be due to the different measurement techniques, a different behaviour of the truncated and sandwiched protein compared to the isolated full-length protein, or to the minor differences we found in the sequence compared to the published Klebsiella CitA gene (sequence of the final sensor can be found in Document S1). […] Decreasing the affinity for the designated substrate bears the risk of also reducing specificity. We therefore tested all mutated sensors for binding of isocitrate and aconitate, the most closely related compounds. […] Also, pH and salt sensitivity were similar to the original sensor (data not shown).
(§3) All in vitro assays were performed in a TECAN Infinite 200 plate reader (TECAN, Austria) in 96 well format (modified from). Proteins, reagents and ligands were dissolved in assay buffer (20 mM Mops, 20 mM NaCl, pH 7 unless specified otherwise). […]

[2] = target: T2, CIT96μ (Klebsiella pneumoniae, UniProt P52687, K120A)
T2 construct: gene citA; CitA residues 6-130 inserted between CFP and Venus (pGW1, pRSET-based), His-tag purified
T2 sequence (P52687 49-173 K120A): T1 sequence (P52687 49-173 R92A)
Procedure: as §1, §2, §3

[3] = target: T3, CIT1.8m (Klebsiella pneumoniae, UniProt P52687, R150A)
T3 construct: gene citA; CitA residues 6-130 inserted between CFP and Venus (pGW1, pRSET-based), His-tag purified
T3 sequence (P52687 49-173 R150A): T1 sequence (P52687 49-173 R92A)
Procedure: as §1, §2, §3

[4] = target: T4, CIT32μ (Klebsiella pneumoniae, UniProt P52687, K135A)
T4 construct: gene citA; CitA residues 6-130 inserted between CFP and Venus (pGW1, pRSET-based), His-tag purified
T4 sequence (P52687 49-173 K135A): T1 sequence (P52687 49-173 R92A)
Procedure: as §1, §2, §3

[5] = target: T5, CIT0.5m (Klebsiella pneumoniae, UniProt P52687, K120A/R92A)
T5 construct: gene citA; CitA residues 6-130 inserted between CFP and Venus (pGW1, pRSET-based), His-tag purified
T5 sequence (P52687 49-173 R92A/K120A): T1 sequence (P52687 49-173 R92A)
Procedure: as §1, §2, §3

[6] = target: T6, CIT8μ (CFP-CitA6-130-Venus) (Klebsiella pneumoniae, UniProt P52687)
T6 construct: gene citA; CitA residues 6-130 inserted between CFP and Venus (pGW1, pRSET-based), His-tag purified
T6 sequence (P52687 50-174): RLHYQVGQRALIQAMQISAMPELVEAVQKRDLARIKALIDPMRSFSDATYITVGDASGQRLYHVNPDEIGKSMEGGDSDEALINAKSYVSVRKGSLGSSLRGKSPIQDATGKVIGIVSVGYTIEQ
Procedure: as §1, §2, §3

## O=C(O)CC(O)(CC(=O)O)C(=O)O [citrate, citrate (citric acid)]
[1]
  Kd: 50 µM
[2]
  Kd: 96 µM
[3]
  Kd: 1760 µM
[4]
  Kd: 32 µM
[5]
  Kd: 470 µM
[6]
  Kd: 8 µM
